The source of these data is patent publication US5532229A, “Topical administration of vitamin D to mammals” (priority 1994, dated 1996).

For data set [1] the following is noted: oral, in chylomicrons; cited from earlier work.
For data set [2] the following is noted: application to skin of rats; cited from earlier work.
Data set [3] is described as follows: Experiment 2: uptake of [14C]-vitamin D3 tracer into serum and conversion to [14C]-25(OH)D3. Format: in vivo, Male Wistar rats. The protocol: One dose of [carbon-14]-labelled vitamin D3 was given at the time of the last of 14 daily doses of nonradioactive vitamin D3. The graphs show the uptake and metabolism of one [^14 C]-vitamin D3 dose during the course of gastric or dermal supplementation with vitamin D3. The tracer was given in addition to the usual, 8 μg/day vitamin D3 dose, and by the same route. Radioactivity in serum was isolated by chromatography to measure that which elutes as vitamin D3, or as […], Each point is the mean of results from six rats;
Uptake of radioactive vitamin D3 from skin or gut during the longer term treatment with vitamin D3 at 20 nmol/day.
The previous experiment 1 involved only one acute dose of a minute, tracer amount of vitamin D3. It remained possible that dermal application could not deliver a larger, more nutritionally relevant amount of vitamin D3. This experiment 2 looked at what happens when vitamin D3 is given during the course of daily treatment with a moderate amount of vitamin D3.
After 30 days, the rats were divided into three groups of 6: one group continued with no supplement, one group was given daily vitamin D3 supplement, 8 μg/day either by gastric tube, the third received the supplement by application to the skin in 50 μL ethanol. Vitamin D3 was given for 3 wk. The day before the rats were killed, the vitamin D3 dose was supplemented with [^14 C]-labelled vitamin D3, 915,000 cpm per rat. Blood was obtained from the tail of each rat at 3 h, 9 h, and by heart puncture when the rats were anesthetized for killing, 24 h after giving the tracer. The blood was extracted and chromatographed to distinguish [^14 C]-vitamin D3 from the [^14 C]-25(OH)D3generated from it. Radioactivity was also measured in the liver, kidney, and adipose tissue. Serum nonradioactive 25(OH)D3 was also measured.

A short description of data set [4]: Experiment 5: [14C]-vitamin D3 left on skin at application site. Format: in vivo, Male Wistar rats. Conditions: for % [14C]-D3 Left on Skin: 2 weeks, 1440 min. The protocol:
This experiment was to compare potential toxic effects of vitamin D3 given for a 2 wk period, at the near-fatal dose of 800 μg per day by gastric tube, or by dermal administration at 800 μg/day or 2600 μg/day. Another goal was find evidence of saturable dermal uptake by including [^14 C]-vitamin D3 to monitor its removal from the skin at the high doses of vitamin D3.
Male Wistar rats, 190±10 g were obtained and divided into three groups of 7. They were treated for 2 weeks with one the following: 2000 nmol/day of vitamin D3 by gastric tube; 800 μg/day applied to a 2×2 cm patch of skin on the back; 2600 μg/day skin. The day before killing, 66,000 counts per minute of [^14 C]-vitamin D3 was applied along with the dermal dose to permit a determination of uptake from the skin. The rats were killed after two weeks for analysis of serum, urine, kidney, and aorta. The calcium in urine and acid-treated homogenate of kidney was measured by chemical colorimetry; aorta calcium was measured by treating with nitric acid measuring calcium by atomic absorption.

As to `C=C1CC[C@H](O)C/C1=C/C=C1\CCC[C@]2(C)[C@@H]([C@H](C)/C=C/[C@H](C)C(C)C)CC[C@@H]12` [vitamin D2], the “activation into 25-hydroxyvitamin D2” value in data set [1] is on record as “partially activated into 25-hydroxyvitamin D2 relatively quickly”.
As for `C=C1/C(=C\C=C2/CCC[C@]3(C)[C@@H]([C@H](C)CCCC(C)(C)O)CC[C@@H]23)C[C@@H](O)C[C@@H]1O` [1,25(OH)2 D3], in data set [2], the intestinal calcium transport result is reported as “increased” and the serum calcium result is “increased”.
Take `C=C1CC[C@H](O)[14CH2]/C1=C/C=C1\CCC[C@]2(C)[C@@H]([C@H](C)CCCC(C)C)CC[C@@H]12` [[^14 C]-vitamin D3]: the “time until [14C]-25(OH)D3 evident in serum” value in data set [3] (dermal administration, after dosing) is listed as at least 24 h. Besides, the “[14C]-25(OH)D3 detection in serum” value in data set [3] (oral dosing) is on record as “detected in every sample”. Moreover, the entries for the “% [14C]-D3 Left on Skin” value in data set [4] (dermal 800 μg/day) and in data set [4] (dermal 2600 μg/day) were 47.8% and 65.6%, respectively. For the same compound, in data set [4] (dermal 800 vs 2600 μg/day), the “proportion of administered vitamin D3 left in the skin, effect of dose” value was “only marginally affected by the dose”.
For `C[C@H](CCCC(C)(C)O)[C@H]1CC[C@H]2C3=CC=C4CC(O)CC(O)[C@]4(C)[C@H]3CC[C@]12C` (stereo partly shown) [1,25-dihydroxylated-7-dehydrocholesterol], in data set [2], the intestinal calcium transport result was “increased” and the serum calcium result is reported as “increased”.
